Measured values from PubChem BioAssay (NCI).
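GI50 marks 50% less growth. TGI denotes the concentration required for complete inhibition of growth.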

How the values were obtained:
Test in all cases: growth of human tumour cells (NCI), 384-well format
A498 renal = system: A498 renal
A549 NSCLC = system: A549 NSCLC
BT-549 breast = system: BT-549 breast
CAKI-1 renal = system: CAKI-1 renal
COLO 205 colon = system: COLO 205 colon
DU-145 prostate = system: DU-145 prostate
EKVX NSCLC = system: EKVX NSCLC
HCC-2998 colon = system: HCC-2998 colon
HCT-116 colon = system: HCT-116 colon
HCT-15 colon = system: HCT-15 colon
HL-60(TB) leukemia = system: HL-60(TB) leukemia
HOP-92 NSCLC = system: HOP-92 NSCLC
HS 578T breast = system: HS 578T breast
HT29 colon = system: HT29 colon
IGROV1 ovarian = system: IGROV1 ovarian
KM12 colon = system: KM12 colon
LOX IMVI melanoma = system: LOX IMVI melanoma
MCF7 breast = system: MCF7 breast
MDA-MB-231 breast = system: MDA-MB-231 breast
MDA-MB-468 breast = system: MDA-MB-468 breast
MOLT-4 leukemia = system: MOLT-4 leukemia
NCI-H226 lung = system: NCI-H226 lung
NCI-H23 lung = system: NCI-H23 lung
NCI-H322M lung = system: NCI-H322M lung
NCI-H460 NSCLC = system: NCI-H460 NSCLC
NCI-H522 lung = system: NCI-H522 lung
NCI/ADR-RES ovarian = system: NCI/ADR-RES ovarian
OVCAR-3 ovarian = system: OVCAR-3 ovarian
OVCAR-4 ovarian = system: OVCAR-4 ovarian
OVCAR-5 ovarian = system: OVCAR-5 ovarian
OVCAR-8 ovarian = system: OVCAR-8 ovarian
PC-3 prostate = system: PC-3 prostate
RPMI-8226 leukemia = system: RPMI-8226 leukemia
RXF 393 renal = system: RXF 393 renal
SF-268 CNS = system: SF-268 CNS
SK-MEL-28 melanoma = system: SK-MEL-28 melanoma
SK-MEL-5 melanoma = system: SK-MEL-5 melanoma
SK-OV-3 ovarian = system: SK-OV-3 ovarian
SN12C renal = system: SN12C renal
SNB-19 CNS = system: SNB-19 CNS
SNB-75 CNS = system: SNB-75 CNS
SR leukemia = system: SR leukemia
T-47D breast = system: T-47D breast
U251 glioblastoma = system: U251 glioblastoma
UACC-257 melanoma = system: UACC-257 melanoma
UACC-62 melanoma = system: UACC-62 melanoma

Question: With `Cn1cc(-c2cnn3c(N)c(Br)c(C4CCCNC4)nc23)cn1` (stereo unspecified) as the molecule, how does the GI50 (A498 renal) read?
Answer: The GI50 was < 10 nM.

Question: What about the TGI (A498 renal) of the same molecule?
Answer: The TGI was 22.6 nM.

Question: What about the GI50 (A549 NSCLC) of the same molecule?
Answer: The GI50 was 7.68 µM.

Question: What about the TGI (A549 NSCLC) of the same molecule?
Answer: The TGI was 28.6 µM.

Question: And the GI50 (BT-549 breast)?
Answer: The GI50 was 33 nM.

Question: What about the TGI (BT-549 breast) of the same molecule?
Answer: The TGI was 5.25 µM.

Question: And the GI50 (CAKI-1 renal)?
Answer: The GI50 was 1460 nM.

Question: What about the TGI (CAKI-1 renal) of the same molecule?
Answer: Its TGI is 15.2 µM.

Question: And the GI50 (COLO 205 colon)?
Answer: The GI50 was 922 nM.

Question: What about the TGI (COLO 205 colon) of the same molecule?
Answer: The TGI was 5.81 µM.

Question: And the GI50 (DU-145 prostate)?
Answer: Its GI50 is 227 nM.

Question: And the TGI (DU-145 prostate)?
Answer: The TGI was 15.6 µM.

Question: What about the GI50 (EKVX NSCLC) of the same molecule?
Answer: The GI50 was 3.54 µM.

Question: And the TGI (EKVX NSCLC)?
Answer: Its TGI is 23.8 µM.

Question: And the GI50 (HCC-2998 colon)?
Answer: The GI50 was < 10 nM.

Question: And the TGI (HCC-2998 colon)?
Answer: Its TGI is 62.4 nM.

Question: What about the GI50 (HCT-116 colon) of the same molecule?
Answer: Its GI50 is 2010 nM.

Question: What about the TGI (HCT-116 colon) of the same molecule?
Answer: Its TGI is 15.6 µM.

Question: What about the GI50 (HCT-15 colon) of the same molecule?
Answer: Its GI50 is 2080 nM.

Question: What about the TGI (HCT-15 colon) of the same molecule?
Answer: Its TGI is 19.4 µM.

Question: What about the GI50 (HL-60(TB) leukemia) of the same molecule?
Answer: The GI50 was 32 nM.

Question: And the TGI (HL-60(TB) leukemia)?
Answer: Its TGI is 129 nM.

Question: And the GI50 (HOP-92 NSCLC)?
Answer: Its GI50 is 26.3 nM.

Question: What about the TGI (HOP-92 NSCLC) of the same molecule?
Answer: The TGI was 33.3 µM.

Question: What about the GI50 (HS 578T breast) of the same molecule?
Answer: The GI50 was 30.2 nM.

Question: And the TGI (HS 578T breast)?
Answer: The TGI was 18.9 µM.

Question: What about the GI50 (HT29 colon) of the same molecule?
Answer: Its GI50 is 989 nM.

Question: What about the TGI (HT29 colon) of the same molecule?
Answer: The TGI was 12.9 µM.

Question: What about the GI50 (IGROV1 ovarian) of the same molecule?
Answer: Its GI50 is 56.3 nM.

Question: What about the TGI (IGROV1 ovarian) of the same molecule?
Answer: The TGI was 13.2 µM.

Question: And the GI50 (KM12 colon)?
Answer: The GI50 was 117 nM.

Question: What about the TGI (KM12 colon) of the same molecule?
Answer: The TGI was 15.8 µM.

Question: What about the GI50 (LOX IMVI melanoma) of the same molecule?
Answer: The GI50 was 1330 nM.

Question: What about the TGI (LOX IMVI melanoma) of the same molecule?
Answer: The TGI was 4.22 µM.

Question: What about the GI50 (MCF7 breast) of the same molecule?
Answer: Its GI50 is 1360 nM.

Question: What about the TGI (MCF7 breast) of the same molecule?
Answer: Its TGI is 17.9 µM.

Question: And the GI50 (MDA-MB-231 breast)?
Answer: Its GI50 is 2900 nM.

Question: What about the TGI (MDA-MB-231 breast) of the same molecule?
Answer: Its TGI is 42.2 µM.

Question: What about the GI50 (MDA-MB-468 breast) of the same molecule?
Answer: The GI50 was 3.75 µM.

Question: And the TGI (MDA-MB-468 breast)?
Answer: The TGI was 24.4 µM.

Question: What about the GI50 (MOLT-4 leukemia) of the same molecule?
Answer: Its GI50 is 23.4 nM.

Question: And the TGI (MOLT-4 leukemia)?
Answer: The TGI was 53 nM.

Question: What about the GI50 (NCI-H226 lung) of the same molecule?
Answer: Its GI50 is 3.29 µM.

Question: And the TGI (NCI-H226 lung)?
Answer: Its TGI is 18.6 µM.

Question: And the GI50 (NCI-H23 lung)?
Answer: The GI50 was 27 nM.

Question: What about the TGI (NCI-H23 lung) of the same molecule?
Answer: Its TGI is 21.2 µM.

Question: And the GI50 (NCI-H322M lung)?
Answer: Its GI50 is 293 nM.

Question: What about the TGI (NCI-H322M lung) of the same molecule?
Answer: The TGI was 22.1 µM.

Question: What about the GI50 (NCI-H460 NSCLC) of the same molecule?
Answer: The GI50 was 930 nM.

Question: What about the TGI (NCI-H460 NSCLC) of the same molecule?
Answer: Its TGI is 10.9 µM.

Question: And the GI50 (NCI-H522 lung)?
Answer: Its GI50 is 2560 nM.

Question: What about the TGI (NCI-H522 lung) of the same molecule?
Answer: The TGI was 11.4 µM.

Question: What about the GI50 (NCI/ADR-RES ovarian) of the same molecule?
Answer: The GI50 was 2040 nM.

Question: And the TGI (NCI/ADR-RES ovarian)?
Answer: Its TGI is > 100 µM.

Question: And the GI50 (OVCAR-3 ovarian)?
Answer: The GI50 was 188 nM.

Question: And the TGI (OVCAR-3 ovarian)?
Answer: The TGI was 20.3 µM.

Question: And the GI50 (OVCAR-4 ovarian)?
Answer: Its GI50 is < 10 nM.

Question: And the TGI (OVCAR-4 ovarian)?
Answer: The TGI was 26.6 µM.

Question: And the GI50 (OVCAR-5 ovarian)?
Answer: The GI50 was 96.4 nM.

Question: What about the TGI (OVCAR-5 ovarian) of the same molecule?
Answer: The TGI was 16.5 µM.

Question: And the GI50 (OVCAR-8 ovarian)?
Answer: The GI50 was 38.2 nM.

Question: What about the TGI (OVCAR-8 ovarian) of the same molecule?
Answer: Its TGI is 21.2 µM.

Question: And the GI50 (PC-3 prostate)?
Answer: The GI50 was 1800 nM.

Question: And the TGI (PC-3 prostate)?
Answer: Its TGI is 14.6 µM.

Question: And the GI50 (RPMI-8226 leukemia)?
Answer: The GI50 was 35.8 nM.

Question: And the TGI (RPMI-8226 leukemia)?
Answer: Its TGI is 643 nM.

Question: And the GI50 (RXF 393 renal)?
Answer: Its GI50 is 33.2 nM.

Question: What about the TGI (RXF 393 renal) of the same molecule?
Answer: Its TGI is 25 µM.

Question: And the GI50 (SF-268 CNS)?
Answer: Its GI50 is 5.36 µM.

Question: And the TGI (SF-268 CNS)?
Answer: The TGI was 27.2 µM.

Question: What about the GI50 (SK-MEL-28 melanoma) of the same molecule?
Answer: The GI50 was 11.1 µM.

Question: What about the TGI (SK-MEL-28 melanoma) of the same molecule?
Answer: Its TGI is 26.5 µM.

Question: What about the GI50 (SK-MEL-5 melanoma) of the same molecule?
Answer: Its GI50 is 34.6 nM.

Question: And the TGI (SK-MEL-5 melanoma)?
Answer: The TGI was 1200 nM.

Question: And the GI50 (SK-OV-3 ovarian)?
Answer: The GI50 was 62.1 nM.

Question: What about the TGI (SK-OV-3 ovarian) of the same molecule?
Answer: The TGI was 23.2 µM.

Question: And the GI50 (SN12C renal)?
Answer: The GI50 was 37.1 nM.

Question: And the TGI (SN12C renal)?
Answer: Its TGI is 3.72 µM.

Question: And the GI50 (SNB-19 CNS)?
Answer: The GI50 was 983 nM.

Question: What about the TGI (SNB-19 CNS) of the same molecule?
Answer: The TGI was 37.1 µM.

Question: What about the GI50 (SNB-75 CNS) of the same molecule?
Answer: Its GI50 is 4.99 µM.

Question: What about the TGI (SNB-75 CNS) of the same molecule?
Answer: Its TGI is 25.3 µM.

Question: And the GI50 (SR leukemia)?
Answer: Its GI50 is < 10 nM.

Question: What about the GI50 (T-47D breast) of the same molecule?
Answer: The GI50 was 14.6 µM.

Question: What about the TGI (T-47D breast) of the same molecule?
Answer: The TGI was 37.1 µM.

Question: What about the GI50 (U251 glioblastoma) of the same molecule?
Answer: Its GI50 is 5.36 µM.

Question: What about the TGI (U251 glioblastoma) of the same molecule?
Answer: The TGI was 20.3 µM.

Question: What about the GI50 (UACC-257 melanoma) of the same molecule?
Answer: Its GI50 is 2290 nM.

Question: What about the TGI (UACC-257 melanoma) of the same molecule?
Answer: Its TGI is 19.5 µM.

Question: And the GI50 (UACC-62 melanoma)?
Answer: The GI50 was 880 nM.

Question: What about the TGI (UACC-62 melanoma) of the same molecule?
Answer: The TGI was 15.3 µM.
